Reference: US20060276455A1, “Use of a mast cell activation or degranulation blocking agent in the manufacture of a medicament for the treatment of cerebral ischemia” (priority 2003, published 2006)

Key:
[1] = system: focal cerebral ischemia in rats (middle cerebral artery occlusion); test: Postischemic neutrophil response (Leder staining) after transient MCA occlusion; type: in vivo, rat; conditions: i.c.v. pretreatment, 4 h after MCAO, vs control
From the text: We used the suture MCA occlusion model with reperfusion, described elsewhere. Briefly, we exposed the right common carotid artery (CCA) and the right external carotid artery (ECA) through a ventral midline neck incision. We ligated the proximal CCA and the origin of the ECA. We inserted a 4-0 nylon mono-filament suture (Ethilon Nylon Suture, ETHICON) with its tip rounded by heating near a flame and then coated with silicone into the right CCA via an arteriectomy. Reperfusion was accomplished by withdrawing the suture occluder 60 minutes after MCAO, whereafter the animals were allowed to recover. Four hours after MCAO, the rats were killed by injecting intraperitoneally 120 mg of pentobarbital natrium (Mebumat). Cardiac perfusion was performed with the heart still beating but respiration ceased by infusing 250 mL of ice cold 0.9% saline at an inflow pressure of 100 mmHg into the arterial vascular system. […] The densities of intravascular and emigrated neutrophils were counted without prior knowledge of animal grouping in systematically placed target areas, the temporoparietal infarction core, the parasagittal infarct penumbra and the deep thalamic and basal ganglia. In each area, 60 to 100 microscopic fields of 0.1 mm^2 were counted and averaged for each location. […]

[2] = system: cerebral hemorrhage in rats; test: Surgically induced cerebral hemorrhage (autologous blood injection), outcome at 24 h; conditions: i.c.v.
Method: In anesthesized rats, 2 craniotomies were performed for the introduction of drug infusion and blood. We injected 50 microliters of autologous arterial blood via stereotactically a Hamilton needle tip placed to the caudate putamen (6 mm from skull surface), a common location of spontaneous cerebral hemorrhages.
Animals were allowed to recover and 24 h later their level of neurological deterioration was rated on a 6-point scale: 5=dead, 4=stuporous, moribund, 3=hemiparetic with balance disturbance, 2=hemiparesis, 1=paresis of contralateral paw, 0=normal. The mortality was also recorded by 24 hours.

`O=C(O)c1cc(=O)c2c(OCC(O)COc3cccc4oc(C(=O)O)cc(=O)c34)cccc2o1` [disodium cromoglycate] was tested, and the “decrease of density of neutrophils in the infarcted hemisphere” value [1] was 37%, the “six-point neurological score (0=normal, 5=dead), average” value ([2]; 24 h, saline-treated 3.2, p<0.01) was 0.89 and the “mortality by 24 hours” value ([2]; saline-treated group 40%) was 0%.
